# Structures can show the parent of a compound that is named as a salt.
# Legend:
# human Cat S = human Cat S (Homo sapiens (Human), UniProt P25774); assay: Cathepsin enzyme inhibition assay (human Cat S); format: biochemical; conditions: enzyme 1 nM, substrate Z-Val-Val-Arg-AMC 20 μM, pH 6.5
# human Cat L = human Cat L (Homo sapiens (Human), UniProt P07711); assay: Cathepsin enzyme inhibition assay (human Cat L); format: biochemical; conditions: enzyme 1 nM, substrate Z-Val-Val-Arg-AMC 20 μM, pH 6.5
# Chain of human Cat L (P07711 114-333): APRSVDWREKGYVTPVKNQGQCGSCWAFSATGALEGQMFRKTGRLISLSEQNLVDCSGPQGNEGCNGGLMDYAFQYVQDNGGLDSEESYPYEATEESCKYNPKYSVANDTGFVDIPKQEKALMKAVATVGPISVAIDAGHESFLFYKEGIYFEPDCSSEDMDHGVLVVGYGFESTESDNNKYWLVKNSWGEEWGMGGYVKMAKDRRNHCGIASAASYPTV
# Chain of human Cat S (P25774 115-331): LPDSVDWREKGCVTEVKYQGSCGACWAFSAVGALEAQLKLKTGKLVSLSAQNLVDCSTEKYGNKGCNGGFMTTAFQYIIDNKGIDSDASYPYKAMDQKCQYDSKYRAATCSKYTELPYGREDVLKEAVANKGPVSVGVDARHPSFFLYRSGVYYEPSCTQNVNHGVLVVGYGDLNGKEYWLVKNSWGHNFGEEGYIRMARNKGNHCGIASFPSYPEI
IC50 (human Cat S) [nM],IC50 (human Cat L) [nM],Structure (SMILES)
1.49,38.1,"COc1ccc(S(=O)(=O)[C@@H]2C[C@@H](C(=O)NC3(C#N)CC3)N(C(=O)C3(c4ccc(Cl)cn4)CNC3)C2)c(Cl)c1 [Example 2, (2S,4R)-4-(2-Chloro-4-methoxy-benzenesulfonyl)-1-[3-(5-chloro-pyridin-2-yl)-azetidine-3-carbonyl]-pyrrolidine-2-carboxylic acid (1-cyano-cyclopropyl)-amide]"
0.791,82.1,"Cn1cc(-c2ccc(S(=O)(=O)[C@@H]3C[C@@H](C(=O)NC4(C#N)CC4)N(C(=O)C4(c5ncc(Cl)cc5F)CCN4)C3)c(Cl)c2)cn1 (stereo partly drawn) [Example 47, (2S,4R)-1-[2-(5-Chloro-3-fluoro-pyridin-2-yl)-azetidine-2-carbonyl]-4-[2-chloro-4-(1-methyl-1H-pyrazol-4-yl)-benzenesulfonyl]-pyrrolidine-2-carboxylic acid (1-cyano-cyclopropyl)-amide hydrochloride]"
2,7,"COC(=O)N1CC(C(=O)N2C[C@H](S(=O)(=O)c3ccc(O[C@@H](C)C(F)(F)F)cc3Cl)C[C@H]2C(=O)NC2(C#N)CC2)(c2ncc(Br)cc2F)C1 [Example 51, 3-(5-Bromo-3-fluoro-pyridin-2-yl)-3-[(2S,4R)-4-[2-chloro-4-((S)-2,2,2-trifluoro-1-methyl-ethoxy)-benzenesulfonyl]-2-(1-cyano-cyclopropylcarbamoyl)-pyrrolidine-1-carbonyl]-azetidine-1-carboxylic acid methyl ester]"
1.07,23.6,"N#CC1(NC(=O)[C@@H]2C[C@@H](S(=O)(=O)c3ccccc3Cl)CN2C(=O)C2(c3ncc(Cl)cc3F)CNC2)CC1 [Example 12, (2S,4R)-1-(3-(5-Chloro-3-fluoropyridin-2-yl)azetidine-3-carbonyl)-4-(2-chlorophenylsulfonyl)-N-(1-cyanocyclopropyl)pyrrolidine-2-carboxamide]"

# Reference: patent US8822505B2, “Azetidine derivatives” (Hoffmann-La Roche Inc., priority 2012, dated 2014)
